Test results taken from patent US10155936B2, “Parkin ligase activation methods and compositions” (An2H Discovery Limited, priority 2014, dated 2018).

Experiments:
Parkin ligase [1] = molecular target: T1, Parkin ligase (Homo sapiens, UniProt O60260); experiment: Parkin pUB auto-ubiquitinylation assay (TR-FRET); assay type: biochemical; settings: for Parkin activity in an auto-ubiquitination assay: pUb activated Parkin, E1-E2 cascade, TR-FRET signal, FIG. 3, FIG. 5
T1 construct: Enzyme 3: Parkin-His tagged 203 μM (10.5 mg/ml) Supplied by An2H
Source text: A Parkin pUB Auto-ubiquitinylation Assay is used to evaluate a candidate compound's potency to activate Parkin's ability to Auto-ubiquitinylate itself.
The principle of this assay is that the E3 Ligase Parkin catalyzes the transfer of Ubiquitin to target proteins, but also has the ability to auto-ubiquitinylate itself. The phospho-Ubiquition (pUb) added to the assay alters the Parkin to a state where small molecule activators can enable the Parkin to auto-ubiquitinylate though the E1-E2 cascade reaction. The use of a Eu cryptate Ubiquition and anti 6His-d2 that binds to the His tagged Parkin will give a signal when the Eu cryptate Ubiquition is auto-ubiquitinylate onto the Parkin which can be monitored by TR-FRET.
Similar to the Activity-based probe assay in Examples 2 and 3, screening for activating compounds can be distinguished from the controls as follows: • 100% activation signal=pUb activated Parkin+40 nM control activator in DMSO. • 0% activation signal=pUb activated Parkin+DMSO only. • Parkin activators can be identified by an increase of the 0% activation signal TR-FRET signal. […]
Assay Procedure: • 1) Load assay plate wells with 4.9 μl 400.0 nM Parkin, 800 nM pUb in reaction buffer by use of Bravo. • 2) Deliver 0.1 μl 100× activator candidates in DMSO by use of HP D-300 compound dispenser. […] Add each compound and control in duplicate wells. • 3) Spin 1000 rpm, 2 minutes, at room temp. • 4) Incubate plate for 15 minutes at room temp. • 5) Add 5 μl 10 nM E1, 100 nM E2, 17.6 nM Ubiquitin Eu and 2 mM ATP in Reaction Buffer by use of Bravo. • 6) Spin 1000 rpm, 2 minutes, at room temp. • 7) Incubate plate for 120 minutes at room temp. • 8) Add 10 μl 13.4 nM anti his d2 in detection buffer by use of Bravo. • 9) Spin 1000 rpm, 2 minutes, at room temp. • 10) Incubate plate for 60 minutes at room temp. • 11) Read plates on Perkin Elmer Envision instrument.
(§1) Data Analysis: The Data can be read in CSV files. […]

Parkin ligase [2] = molecular target: T2, Parkin ligase (Homo sapiens, UniProt O60260); experiment: Tandem mass spectrometry of Parkin ligase incubated with compound, after proteolytic digestion; assay type: binding; settings: tandem mass spectrometry of proteolytic fragments
T2 construct: Enzyme: Parkin-His tagged 203 μM (10.5 mg/ml)
T2 sequence (O60260 1-465): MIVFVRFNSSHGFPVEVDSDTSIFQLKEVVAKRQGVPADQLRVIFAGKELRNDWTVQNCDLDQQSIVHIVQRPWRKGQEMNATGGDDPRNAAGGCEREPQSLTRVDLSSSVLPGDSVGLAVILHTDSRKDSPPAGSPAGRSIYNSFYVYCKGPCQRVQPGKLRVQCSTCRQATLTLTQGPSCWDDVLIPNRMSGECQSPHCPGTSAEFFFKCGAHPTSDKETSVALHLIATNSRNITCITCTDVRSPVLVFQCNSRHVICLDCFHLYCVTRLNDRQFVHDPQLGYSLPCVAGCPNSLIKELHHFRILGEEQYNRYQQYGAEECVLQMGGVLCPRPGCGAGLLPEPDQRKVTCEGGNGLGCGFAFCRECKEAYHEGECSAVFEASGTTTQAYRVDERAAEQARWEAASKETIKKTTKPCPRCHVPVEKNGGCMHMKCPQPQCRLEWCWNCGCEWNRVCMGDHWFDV
Protocol: Parkin ligase was incubated with AH007 compound, and the mixture was then subject to tandem mass spectometry analysis after proteolytic digestion to produce fragments of Parkin ligase. […] Compound An2H07 is also fragmented when analyzed by mass spectrometry. Therefore, characteristic pieces of the compound AH007 that are attached to specific residues of Parkin can also be identified. These fragments were characterized for alterations in fragment size indicative of bound small molecule of the predicted molecular weight of AH007. The mass spectrometry data identified three specific fragments of AH007 at two specific residues of Parkin ligase. The data identified a fragment of 253.08-256.09 of AH007 compound attached to cysteine residue 377 of Parkin ligase (C377) and a fragment of 343.14-346.14 of AH007 compound attached to C377. The data also identified a fragment of 253.08-256.09 of AH007 compound attached to cysteine residue 59 of Parkin ligase (C59). […] It is also believed that at least C377 is included in ZnF domains of human Parkin Ligase, and thus accords with the theory that cysteine residues in the flexible Parkin ligase ZnF domains are vulnerable for attachment and/or interruption by small molecule candidates. Peptide fragments of Parkin comprising C59 and/or C377 will be useful to design further binding assays and selection of additional modulating agents.

Parkin ligase [3] = molecular target: T2, Parkin ligase; experiment: Activity-based probe assay using a ubiquitin vinyl sulfone probe (TR-FRET); assay type: biochemical; settings: heat activated Parkin, HA-Ub-VS probe, TR-FRET signal; FIG. 1, FIG. 2
Protocol: A Ubiquitin vinyl sulfone probe can be used that irreversibly binds to the active site cysteine of Parkin ligase. Covalent attachment of the probe to the Parkin can be monitored by TR-FRET. Candidate activator compounds can be identified by increasing the activity of Parkin ligase due to an increase in TR-FRET signal. Screening for activating compounds can be distinguished from the controls as follows: • 100% activation signal=Heat activated Parkin+100 nM control activator in DMSO. 0% activation signal=Heat activated Parkin+DMSO only. Parkin activators can be identified by an increase of the 0% activation signal TR-FRET signal. […]
as §1

Cc1nc2c(-c3ccccc3)c(C)nn2c(S)c1Cc1ccccc1 [AH007, 6-benzyl-2,5-dimethyl-3-phenylpyrazolo[1,5-a]pyrimidine-7-thiol]
Parkin activity in an auto-ubiquitination assay (Parkin ligase [1]): increases Parkin activity | binding residues of Parkin ligase for the compound (Parkin ligase [2]): binds and/or attaches to two specific sites in Parkin ligase: C59 and C377 | Parkin Ligase reaction with the Activity-based Ubiquitin vinyl sulfone probe (Parkin ligase [3]): increases the Parkin Ligase reaction

O=C(Nc1nc(NC(=O)c2ccccc2)n(-c2ccccc2)n1)c1ccccc1 [AH001, N,N′-(1-phenyl-1H-1,2,4-triazole-3,5-diyl)dibenzamide]
parkin activation in an auto-ubiquitination assay, compound with pUB (Parkin ligase [1]; compound together with pUB, FIGS. 4A and 4B): synergistically increases parkin activation | Parkin activity in an auto-ubiquitination assay (Parkin ligase [1]): increases Parkin activity | Parkin Ligase reaction with the Activity-based Ubiquitin vinyl sulfone probe (Parkin ligase [3]): increases the Parkin Ligase reaction
